Experimental findings from US7786171B2, “Amide derivatives as positive allosteric modulators and methods of use thereof” (Abbott Laboratories, priority 2008, dated 2010) are described below.

Usually inhibition stands for the relative decrease from the control value, in per cent. Usually pEC50 stands for the EC50 on a negative log10 scale, so that one unit is a factor of ten.

pEC50: −log10 of the molar value.

One test deals with T1, σ2 receptors (Rattus norvegicus, UniProt Q5U3Y7).
T1 construct: The origin of the (σ1 and σ2 receptors were Jurkat cells and rat cerebral cortex, respectively); from tissue; host or cells: rat cerebral cortex
T1 sequence (Q5U3Y7 1-176): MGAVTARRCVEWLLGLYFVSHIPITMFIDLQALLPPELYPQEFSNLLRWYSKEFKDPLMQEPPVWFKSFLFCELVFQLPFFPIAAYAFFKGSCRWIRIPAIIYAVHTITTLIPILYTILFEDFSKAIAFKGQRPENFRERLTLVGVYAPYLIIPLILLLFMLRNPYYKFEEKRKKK
The experiment in a line: Sigma receptor binding assay, σ2 ([3H]1,3-di(2-tolyl)guanidine displacement). The settings on record: test compound 10 μM; rat cerebral cortex. The procedure: (§1) Sigma receptors are binding sites that interact with several psychoactive agents. Inhibition of specific binding of known ligands to sigma receptors (σ1 and σ2) was used to determine the selectivity of test compounds. The assays were performed as described previously in the literature (non-selective σ: Shirayama, Y., et al. Eur. J. Pharmacol. (1993), 237: 117-126. σ1: Ganapathy, M. E., et al. J. Pharmacol. Exp. Ther. (1999) 289: 251-260. σ2: Bowen, M. D., et al. Mol. Neuropharmacol. (1993) 3: 117-126.). The origin of the non-selective a receptors was rat cerebral cortex. The origin of the (σ1 and σ2 receptors were Jurkat cells and rat cerebral cortex, respectively.
(§2) Affinity for the receptors was determined by competitive displacement of specific ligands (8 nM of [^3H] 1,3-di(2-tolyl)guanidine for non-selective σ, 8 nM of [^3H](+)pentazocine for σ1 and 5 nM of [^3H]1,3-di(2-tolyl)guanidine for σ2) by test compounds. Nonspecific binding was determined by addition of an excess of an unlabelled binder (10 μM haloperidol).
(§3) The results are expressed as a percent inhibition of control specific binding (100−((measured specific binding/control specific binding)×100)) obtained in the presence of test compound (10 μM) as shown in Table 1. In addition, Table 1 includes data for the selected compounds from the voltage-clamp in Xenopus laevis oocytes assay.

In the next test the target is T2, σ1 receptors (Homo sapiens, UniProt Q99720).
T2 construct: The origin of the (σ1 and σ2 receptors were Jurkat cells and rat cerebral cortex, respectively); endogenous in cells; host or cells: Jurkat cells
In words: Sigma receptor binding assay, σ1 ([3H](+)pentazocine displacement, Jurkat cells). The settings on record: test compound 10 μM. As to the method:
as §1, §2, §3

The target of the next test is T3, human α7 NNR (Homo sapiens, UniProt P36544).
T3 construct: expressed in transfected cells; host or cells: Xenopus laevis oocytes (cRNA injection)
The experiment in a line: Two-electrode voltage-clamp in Xenopus laevis oocytes, potentiation of ACh-evoked α7 currents. The settings on record: for Voltage-Clamp in Xenopus laevis Oocytes % max (degree of normalized potentiation): 0.1 mM ACh, normalized to reference PAM at 10 μM = 100%, ACh alone = 0%; for pEC50: potentiation of 0.1 mM ACh-evoked α7 currents. The class given is cell-based. The procedure:
X. laevis oocytes were prepared for electrophysiological experiments as described in the literature (see for example. Briggs, C. A. el al, Neuropharmacology. 1995. 34: 583-590; Briggs, C. A. et al., Neuropharmacology, 1998, 37: 1095-1102, which are incorporated herein by reference). In brief, three to four lobes from ovaries of female adult X. laevis frogs were removed and defolliculated after treatment with collagenase type 1A (2 mg/mL; Sigma) prepared in low-Ca^2+ Barth's solution (90 mM NaCl, 1.0 mM KCl, 0.66 mM NaNO3, 2.4 mM NaHCO3, 10 mM HEPES, 2.5 mM sodium pyruvate, 0.82 mM MgCl2, and 0.5% (v/v) penicillin-streptomycin solution, pH=7.55, Sigma) for about 1.5 hours to about 2 hours at about 18° C. under constant agitation to obtain isolated oocytes.
The isolated oocytes were injected with about 4 ng to about 6 ng of human α7 NNR cRNA, kept at about 18° C. in a humidified incubator in modified Barth's solution (90 mM NaCl, 1.0 mM KCl, 0.66 mM NaNO3, 2.4 mM NaHCO3, 10 mM HEPES, 2.5 mM sodium pyruvate, 0.74 mM CaCl2, 0.82 mM MgCl2, 0.5% (v/v) penicillin-streptomycin solution, pH 7.55) and used about 2 to 7 days after injection. Responses were measured by two-electrode voltage clamp using a Parallel Oocyte Electrophysiology Test Station (Abbott, Abbott Park, Ill.) (see for example, Trumbull, J. D., et al., Receptors Channels, 2003, 9: 19-28, which is incorporated herein by reference). During recordings, the oocytes were bathed in Ba^2+-OR2 solution (90 mM NaCl, 2.5 mM KCl, 2.5 mM BaCl2, 1.0 mM MgCl2, 5.0 mM HEPES, and 0.0005 mM atropine, pH 7.4) to prevent activation of Ca^2+-dependent currents and held at −60 mV at room temperature (about 20° C.). Test compounds were pre-applied alone for […] and subsequently in the presence of 0.1 mM acetylcholine (ACh) as the agonist. The data were expressed as percentage potentiation of the acetylcholine-evoked current normalized to the response of reference PAM (at 10 μM, N′-[(2Z)-3-(2,2-difluoro-1,3-benzodioxol-5-yl)-5-methyl-1,3-thiazol-2(3 H)-ylidene]-N,N-dimethylurea) taken as 100% and the response to submaximum ACh without any PAM as 0%.
(In general: Two-electrode voltage clamp holds a large cell at a set potential and records current.)

The test system of test [1] is formalin-induced nociceptive behavior. The experiment in a line: Formalin-induced persistent nociceptive behavior assay. The settings on record: mice; 10 mg/kg subcutaneously 10 minutes prior to formalin; phase 2, 20-45 minutes post formalin. The format is in vivo. As to the method:
Nociception was assessed using the formalin test. The mice were placed in open plexiglass observation chambers for 30 minutes to allow them to acclimate to their surroundings: then they were removed for formalin administration. Mice were gently restrained while the dorsum of the hind paw was injected with 20 μL of 2.5% formalin into the plantar surface of the right hind paw with a 30-gauge needle. The animals were returned to the chambers and nociceptive behavior was observed immediately after formalin injection. Mirrors were placed in each chamber to enable unhindered observation. Nociceptive behavior was quantified as the time licking the injected paw for continuous 5 minutes (phase 1) and 20-45 minutes (phase 2), following formalin injection. Formalin-induced flinching/licking behavior was biphasic. The initial acute phase (phase 1.0-5 minutes) was followed by a relatively short quiescent period, which was then followed by a prolonged tonic response (phase 2, 20-45 minutes).

Test [2] concerns non-selective σ receptors. In words: Sigma receptor binding assay, non-selective σ ([3H]1,3-di(2-tolyl)guanidine displacement). The settings on record: test compound 10 μM; rat cerebral cortex. As to the method: as §1, §2, §3
Another test deals with sensory gating T:C ratio. The experiment in a line: Sensory gating deficit in DBA/2 mice (N40 gating) assay. The note with it: dose 0.01 μmol/kg. The class given is in vivo. The text has this: Sensory gating is a basic central nervous system function that facilitates attending to important stimuli, and ignoring irrelevant background noise. A practical example of sensory gating is the ability to follow a conversation at a loud party. An experimental measure of sensory gating is the suppression of brainwave (evoked potential) responding to repetitive auditory stimuli. Schizophrenic patients can not suppress responding to repetitive stimuli, and are therefore considered to have sensory gating deficiencies.
DBA/2 mice (20-25 g, 8-10 week, Harlan) were used for gating experiments and handled in accordance with approved Association for Assessment and Accreditation of Laboratory Animal Care procedures. Mice were given food and water ad libitum and maintained on a 12-hour light/dark cycle (lights on at 0600 hours).
The surgical techniques employed were similar to those previously described (Connolly P M, et al. (2003) Brain Res 992(1):85-95). […]
To obtain EEG and evoked potentials (EPs), unanesthetized mice were recorded in acoustically isolated chambers (Med Associates). EEG biosignals were recorded from freely moving mice using flexible cable tethers and electrical swivels (Plastics One) and amplified with differential AC amplifiers (Grass Instrument Division, Astro-Med, West Warwick, R.I. USA). […]

For the next test, the target named is α7 NNRs (Homo sapiens, UniProt P36544). The settings on record: IMR-32 cells.
α7 NNRs, sequence (P36544 23-502): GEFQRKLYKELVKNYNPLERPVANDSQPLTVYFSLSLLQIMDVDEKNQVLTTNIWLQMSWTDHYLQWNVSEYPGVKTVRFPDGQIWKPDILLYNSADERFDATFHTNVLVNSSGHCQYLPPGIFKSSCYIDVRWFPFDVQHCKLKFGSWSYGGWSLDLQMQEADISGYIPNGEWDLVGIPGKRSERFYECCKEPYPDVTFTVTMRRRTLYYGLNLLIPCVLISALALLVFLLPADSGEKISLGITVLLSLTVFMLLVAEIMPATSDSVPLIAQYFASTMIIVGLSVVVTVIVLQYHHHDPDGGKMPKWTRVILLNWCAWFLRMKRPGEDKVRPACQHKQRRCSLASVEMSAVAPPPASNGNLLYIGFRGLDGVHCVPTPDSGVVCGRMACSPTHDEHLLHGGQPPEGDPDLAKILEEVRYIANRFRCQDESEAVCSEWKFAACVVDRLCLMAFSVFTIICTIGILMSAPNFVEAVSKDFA

T3 sequence (P36544 23-502): as above
T2 sequence (Q99720 whole entry): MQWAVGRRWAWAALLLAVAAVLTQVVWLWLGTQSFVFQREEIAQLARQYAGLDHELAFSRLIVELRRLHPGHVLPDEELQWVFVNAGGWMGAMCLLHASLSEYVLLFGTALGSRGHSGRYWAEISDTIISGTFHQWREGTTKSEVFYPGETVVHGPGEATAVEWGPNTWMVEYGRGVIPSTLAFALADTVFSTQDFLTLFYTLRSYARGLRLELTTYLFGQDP
Procedure for α7 NNRs: Although cell types such as IMR-32 neuroblastoma and neurons are known to contain several nicotinic receptor subunits, α7 selective agonists in the present assay selectively stimulate calcium responses only in the presence of PAMs. Any suitable selective α7 agonist can be used.
IMR-32 neuroblastoma cells (ATCC) were grown to confluency in 162 cm^2 tissue culture flasks in minimum essential media supplemented with 10% fetal bovine serum and 1 mM sodium pyruvate, 0.1 mM non-essential amino acids and 1% antibiotic-antimycotic. […]
Calcium flux was measured using a calcium-3 assay kit (Molecular Devices, Sunnyvale, Calif.) or Fluo-4 (Invitrogen, Carlsbad, Calif.). […] Fluorescence measurements were read simultaneously from all the wells by a Fluorometric Imaging Plate Reader (FLIPR) at an excitation wavelength of 480 nm and an emission wavelength of 520 nm. Baseline fluorescence was measured for the first 10 seconds at which 50 μL of 3× concentrations of modulator/test compounds were added to the cell plate and incubated for three to five minutes. The fluorescence intensity was captured every second for the first 1 minute followed by every 2-5 seconds for an additional two to four minutes. This procedure was followed by 50 μL of 4× concentration of agonist and readings were taken for a period of three to five minutes as described above. […]

In the case of `O=C(Cc1ccc(NCC2CC2)cc1)Nc1ccc(SC(F)F)cc1` [Example 43, 2-{4-[(cyclopropylmethyl)amino]phenyl}-N-{4-[(difluoromethyl)thio]phenyl}acetamide], the inhibition at 10 µM on σ2 receptors was 34%. In addition, the inhibition at 10 µM on σ1 receptors turned out to be 84%. Also, on human α7 NNR, the “Voltage-Clamp in Xenopus laevis Oocytes % max (degree of normalized potentiation)” value turned out to be 2% and the pEC50 is less than 5.00.

As to `CN(C)c1ccc(CNC(=O)c2ccc(SC(F)(F)F)cc2)cc1` [Example 17, N-[4-(dimethylamino)benzyl]-4-[(trifluoromethyl)thio]benzamide], the inhibition at 10 µM on σ2 receptors was -1%. In addition, at σ1 receptors, the inhibition at 10 µM worked out at 8%. At human α7 NNR, the “Voltage-Clamp in Xenopus laevis Oocytes % max (degree of normalized potentiation)” value is recorded as 94% and the negative-log EC50 (pEC50) was 6.74.

As for `CNc1ccc(CNC(=O)c2ccc(SC(F)(F)F)cc2)cc1` [Example 20, N-[4-(methylamino)benzyl]-4-[(trifluoromethyl)thio]benzamide], the “reduction in licking duration (nociceptive behavior), phase 2” value in test [1] is given as 68%. Also, the “% Inhibition of Binding at 10 μM σ” value in test [2] stood at 39%. Besides, at human α7 NNR, the “Voltage-Clamp in Xenopus laevis Oocytes % max (degree of normalized potentiation)” value was determined as 99% and the pEC50 is 7.01. The “reduction of T:C (test:conditioned) ratios compared to vehicle” value in the test on sensory gating T:C ratio was 23.7±8.9%.

In the case of `O=C(NCc1cccc(-n2cccn2)c1)c1ccc(SC(F)(F)F)cc1` [Example 12, N-[3-(1H-pyrazol-1-yl)benzyl]-4-[(trifluoromethyl)thio]benzamide], at human α7 NNR, the “Voltage-Clamp in Xenopus laevis Oocytes % max (degree of normalized potentiation)” value stood at 61% and the pEC50 is 5.43.

Take `CCN1C[C@]2(COC(=O)c3ccccc3N3C(=O)C[C@H](C)C3=O)CC[C@H](OC)[C@@]34[C@@H]5C[C@H]6[C@H](OC)[C@@H]5[C@](O)(C[C@@H]6OC)[C@@](O)([C@@H](OC)[C@H]23)[C@@H]14` [methyllycaconitine]: at α7 NNRs, the “calcium response to agonist in the presence of an allosteric modulator” value is given as “abolished the response”.

Consider `CNc1ccc(CNC(=O)c2ccc(SC(F)F)cc2)cc1` [Example 22, 4-[(difluoromethyl)thio]-N-[4-(methylamino)benzyl]benzamide], for which the inhibition at 10 µM on σ2 receptors is -4%. For the same compound, the inhibition at 10 µM at σ1 receptors is 21%. Also, on human α7 NNR, the “Voltage-Clamp in Xenopus laevis Oocytes % max (degree of normalized potentiation)” value amounted to 115% and the pEC50 is 5.92.

As for `Nc1ccc(CNC(=O)c2ccc(SC(F)(F)F)cc2)cc1` [Example 19, N-(4-aminobenzyl)-4-[(trifluoromethyl)thio]benzamide], the “% Inhibition of Binding at 10 μM σ” value in test [2] is 6%. In addition, on human α7 NNR, the “Voltage-Clamp in Xenopus laevis Oocytes % max (degree of normalized potentiation)” value was 120% and the negative logarithm of the EC50 (pEC50) was 5.27.
